Measured values: patent publication US7799821B2, “Therapeutic compounds” (Allergan, Inc., priority 2004, dated 2010)

target: T1, hEP4/Gqs5 (Homo sapiens, UniProt P35408); assay: FLIPR calcium signal, hEP4; format: cell-based; details: Table 3, third part
T1 construct: expressed in transfected cells; host or cells: HEK-293(EBNA)
How it was run: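 HEK-293(EBNA) cells stably expressing each human prostanoid receptor (EP2 and EP3A coupled via Gqs5/Gqi5 chimeras) were loaded with Fluo-4 AM, and peak calcium fluorescence was measured on FLIPR at 37° C. Compounds were tested at 10^−5 M or from 10^−11 to 10^−5 M in duplicate, n≥3, with response expressed relative to buffer and standard agonist controls.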

T1 sequence (P35408 whole entry): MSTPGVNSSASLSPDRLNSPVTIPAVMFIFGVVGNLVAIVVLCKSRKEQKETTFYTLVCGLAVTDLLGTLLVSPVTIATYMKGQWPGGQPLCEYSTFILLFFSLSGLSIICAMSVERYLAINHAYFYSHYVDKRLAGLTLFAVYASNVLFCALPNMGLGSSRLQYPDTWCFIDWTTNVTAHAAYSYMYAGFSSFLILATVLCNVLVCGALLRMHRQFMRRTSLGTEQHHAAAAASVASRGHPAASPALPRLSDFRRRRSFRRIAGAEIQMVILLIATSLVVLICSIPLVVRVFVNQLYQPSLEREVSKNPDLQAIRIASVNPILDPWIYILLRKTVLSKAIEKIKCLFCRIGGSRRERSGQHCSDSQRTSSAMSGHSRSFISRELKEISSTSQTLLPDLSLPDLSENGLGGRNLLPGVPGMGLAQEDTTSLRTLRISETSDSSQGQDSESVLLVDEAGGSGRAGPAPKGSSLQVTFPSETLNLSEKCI

Row | Ca2+ Signal-EC50 (nM) EP4 | Structure (SMILES)
1 | not active | CCCCCC(C)c1ccc([C@@H]2[C@@H](C/C=C\CCCC(=O)O)[C@H](C#N)C[C@H]2C)cc1 (stereo partly drawn)

same assay, conditions: unit inferred; read-out: EP4 data flipr EC50

Row | EC50 [nM] | Structure (SMILES)
2 | > 10000 | CC(C)(C)c1ccc(N2C(=O)CC[C@@H]2CCCCCCC(=O)O)cc1
3 | > 10000 | CC(C)(C)c1ccc(N2C(=O)CC[C@@H]2COCc2ccc(C(=O)O)s2)cc1
4 | > 10000 | CCCCCC(O)c1ccc(N2C(=O)CC[C@@H]2COCc2ccc(C(=O)O)s2)cc1 (single isomer, unassigned) [drawing 176]
5 | > 10000 | CCCCCC(O)c1ccc(N2C(=O)CC[C@@H]2CCCc2ccc(C(=O)O)s2)cc1 (single isomer, unassigned) [drawing 178]
6 | > 10000 | CCCCCC(O)c1ccc(N2C(=O)CC[C@@H]2COCc2ccc(C(=O)O)s2)cc1 (single isomer, unassigned) [drawing 148]
7 | > 10000 | CCCCCC(O)c1ccc(N2C(=O)CC[C@@H]2COCc2ccc(C(=O)O)s2)cc1 (single isomer, unassigned) [drawing 177]
8 | > 10000 | CCCCCC(=O)c1ccc(N2C(=O)CC[C@@H]2CCCc2ccc(C(=O)O)s2)cc1
9 | > 10000 | CCCCCC(O)c1ccc(N2C(=O)CC[C@@H]2CCCc2ccc(C(=O)O)s2)cc1 (single isomer, unassigned) [drawing 179]
10 | > 10000 | CC(C)(C)c1ccc(N2C(=O)CC[C@@H]2COCc2ccc(C(=O)O)o2)cc1
11 | > 10000 | CCCCCC(O)c1ccc(N2C(=O)CC[C@@H]2CCCc2ccc(C(=O)O)s2)cc1 (single isomer, unassigned) [drawing 151]

target: T2, HEK-EBNA cells expressing a PG EP2 receptor subtype (Homo sapiens, UniProt P43116); assay: cAMP assay, EP2; format: cell-based; details: Table 3, third part; value in parentheses; read-out: EP2 EC50 in a cAMP mediated assay
T2 construct: expressed in transfected cells; host or cells: HEK-EBNA
Method: A 384-well drug plate was prepared to contain 6 test compounds, PGE2 and cAMP in 16 serial dilutions in triplicate, using a Biomek station. HEK-EBNA cells expressing a target PG receptor subtype (EP2 or EP4) were suspended in a stimulation buffer (HBSS, 0.1% BSA, 0.5 mM IBMX and 5 mM HEPES, pH 7.4) in a density of 10^4 cells/5 μl. The reaction was initiated by mixing 5 μL drug dilutions with 5 μl of HEK-EBNA cells in a well, carried out for 30 min at room temperature, and followed by the addition of 5 μl anti-cAMP acceptor beads in the control buffer with Tween-20 (25 mM NaCl, 0.03% Tween-20, 5 mM HEPES, pH7.4). After 30 min in the dark at room temperature, the mixtures were incubated with 15 μl biotinylated-cAMP/strepavidin donor beads in Lysis/Detection buffer (0.1% BSA, 0.3% Tween-20 and 5 mM HEPES, pH7.4) for 45 min at the room temperature. Fluorescence changes were read using a Fusion-alpha HT microplate reader.

T2 sequence (P43116 whole entry): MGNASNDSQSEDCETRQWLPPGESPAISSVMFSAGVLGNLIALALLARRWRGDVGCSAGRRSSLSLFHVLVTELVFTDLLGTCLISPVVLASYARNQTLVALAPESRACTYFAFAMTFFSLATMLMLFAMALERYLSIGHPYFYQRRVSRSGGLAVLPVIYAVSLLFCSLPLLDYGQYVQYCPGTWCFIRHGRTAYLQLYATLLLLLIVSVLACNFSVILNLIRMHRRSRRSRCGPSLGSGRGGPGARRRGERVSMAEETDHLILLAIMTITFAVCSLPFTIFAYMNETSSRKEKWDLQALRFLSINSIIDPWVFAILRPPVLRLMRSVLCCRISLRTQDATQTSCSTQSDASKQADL

Row | EC50 [nM] | Structure (SMILES)
12 | 4 | CCCCCC(C)c1ccc([C@@H]2[C@@H](C/C=C\CCCC(=O)O)[C@H](C#N)C[C@H]2C)cc1 (stereo partly drawn)

same assay, conditions: unit inferred; read-out: EP2 data cAMP EC50

Row | EC50 [nM] | Structure (SMILES)
13 | 1.4 | CCCCCCC(O)c1ccc(N2C(=O)CC[C@@H]2CCCc2ccc(C(=O)O)s2)cc1 (single isomer, unassigned) [drawing 183]
14 | 548 | CC(C)(C)c1ccc(N2C(=O)CC[C@@H]2CCCCCCC(=O)O)cc1
15 | 51 | CC(C)(C)c1ccc(N2C(=O)CC[C@@H]2COCc2ccc(C(=O)O)s2)cc1
16 | 7 | CCCCCC(O)c1ccc(N2C(=O)CC[C@@H]2CCCc2ccc(C(=O)O)s2)cc1 (single isomer, unassigned) [drawing 180]
17 | 0.6 | CCCCCCC(O)c1ccc(N2C(=O)CC[C@@H]2CCCc2ccc(C(=O)O)s2)cc1 (single isomer, unassigned) [drawing 184]
18 | 5 | CCCCCC(O)c1ccc(N2C(=O)CC[C@@H]2COCc2ccc(C(=O)O)s2)cc1 (single isomer, unassigned) [drawing 176]
19 | 0.19 | CCCCCC(O)c1ccc(N2C(=O)CC[C@@H]2CCCc2ccc(C(=O)O)s2)cc1 (single isomer, unassigned) [drawing 178]
20 | 5 | CCCCCC(O)c1ccc(N2C(=O)CC[C@@H]2COCc2ccc(C(=O)O)s2)cc1 (single isomer, unassigned) [drawing 148]
21 | 0.6 | CCCCCCC(O)c1ccc(N2C(=O)CC[C@@H]2CCCc2ccc(C(=O)O)s2)cc1 (single isomer, unassigned) [drawing 156]
22 | 1.4 | CCCCCCC(O)c1ccc(N2C(=O)CC[C@@H]2CCCc2ccc(C(=O)O)s2)cc1 (single isomer, unassigned) [drawing 155]
23 | 1.5 | CCCCCC(O)c1ccc(N2C(=O)CC[C@@H]2COCc2ccc(C(=O)O)s2)cc1 (single isomer, unassigned) [drawing 177]
24 | 1.6 | CCCCCC(=O)c1ccc(N2C(=O)CC[C@@H]2CCCc2ccc(C(=O)O)s2)cc1
25 | 0.15 | CCCCCC(O)c1ccc(N2C(=O)CC[C@@H]2CCCc2ccc(C(=O)O)s2)cc1 (single isomer, unassigned) [drawing 179]
26 | 28 | CC(C)(C)c1ccc(N2C(=O)CC[C@@H]2COCc2ccc(C(=O)O)o2)cc1
27 | 7 | CCCCCCC(O)c1ccc(N2C(=O)CC[C@@H]2COCc2ccc(C(=O)O)s2)cc1 (single isomer, unassigned) [drawing 152]
28 | 0.15 | CCCCCC(O)c1ccc(N2C(=O)CC[C@@H]2CCCc2ccc(C(=O)O)s2)cc1 (single isomer, unassigned) [drawing 151]
29 | 0.55 | CCCCCC(O)c1ccc(N2C(=O)CC[C@@H]2CCCc2ccc(C(=O)O)s2)cc1 (stereo partly drawn) [drawing 145]
30 | 0.55 | CCCCCC(O)c1ccc(N2C(=O)CC[C@@H]2CCCc2ccc(C(=O)O)s2)cc1 (stereo partly drawn) [drawing 173]

target: T3, human EP2 receptors (Homo sapiens, UniProt P43116); assay: Competition radioligand binding ([3H]PGE2), EP2; details: Table 3, third part; read-out: BINDING-Ki (nM) EP2
T3 construct: expressed in transfected cells; host or cells: HEK 293
T3 sequence (P43116 whole entry): as above

Row | Ki [nM] | Structure (SMILES)
31 | 1250 | CCCCCC(C)c1ccc([C@@H]2[C@@H](C/C=C\CCCC(=O)O)[C@H](C#N)C[C@H]2C)cc1 (stereo partly drawn)

same assay, conditions: pH 6.0; unit inferred; read-out: EP2 data Ki pH 6.0

Row | Ki [nM] | Structure (SMILES)
32 | 27 | CC(C)(C)c1ccc(N2C(=O)CC[C@@H]2COCc2ccc(C(=O)O)s2)cc1
33 | 189 | CC(C)(C)c1ccc(N2C(=O)CC[C@@H]2COCc2ccc(C(=O)O)o2)cc1

same assay, conditions: unit inferred; read-out: EP2 data Ki

Row | Ki [nM] | Structure (SMILES)
34 | 12 | CCCCCCC(O)c1ccc(N2C(=O)CC[C@@H]2CCCc2ccc(C(=O)O)s2)cc1 (single isomer, unassigned) [drawing 183]
35 | > 10000 | CC(C)(C)c1ccc(N2C(=O)CC[C@@H]2CCCCCCC(=O)O)cc1
36 | 501 | CC(C)(C)c1ccc(N2C(=O)CC[C@@H]2COCc2ccc(C(=O)O)s2)cc1
37 | 229 | CCCCCC(O)c1ccc(N2C(=O)CC[C@@H]2CCCc2ccc(C(=O)O)s2)cc1 (single isomer, unassigned) [drawing 180]
38 | 8 | CCCCCCC(O)c1ccc(N2C(=O)CC[C@@H]2CCCc2ccc(C(=O)O)s2)cc1 (single isomer, unassigned) [drawing 184]
39 | 345 | CCCCCC(O)c1ccc(N2C(=O)CC[C@@H]2COCc2ccc(C(=O)O)s2)cc1 (single isomer, unassigned) [drawing 176]
40 | 21 | CCCCCC(O)c1ccc(N2C(=O)CC[C@@H]2CCCc2ccc(C(=O)O)s2)cc1 (single isomer, unassigned) [drawing 178]
41 | 345 | CCCCCC(O)c1ccc(N2C(=O)CC[C@@H]2COCc2ccc(C(=O)O)s2)cc1 (single isomer, unassigned) [drawing 148]
42 | 8 | CCCCCCC(O)c1ccc(N2C(=O)CC[C@@H]2CCCc2ccc(C(=O)O)s2)cc1 (single isomer, unassigned) [drawing 156]
43 | 12 | CCCCCCC(O)c1ccc(N2C(=O)CC[C@@H]2CCCc2ccc(C(=O)O)s2)cc1 (single isomer, unassigned) [drawing 155]
44 | 116 | CCCCCC(O)c1ccc(N2C(=O)CC[C@@H]2COCc2ccc(C(=O)O)s2)cc1 (single isomer, unassigned) [drawing 177]
45 | 31 | CCCCCC(=O)c1ccc(N2C(=O)CC[C@@H]2CCCc2ccc(C(=O)O)s2)cc1
46 | 15 | CCCCCC(O)c1ccc(N2C(=O)CC[C@@H]2CCCc2ccc(C(=O)O)s2)cc1 (single isomer, unassigned) [drawing 179]
47 | 4000 | CC(C)(C)c1ccc(N2C(=O)CC[C@@H]2COCc2ccc(C(=O)O)o2)cc1
48 | 229 | CCCCCCC(O)c1ccc(N2C(=O)CC[C@@H]2COCc2ccc(C(=O)O)s2)cc1 (single isomer, unassigned) [drawing 152]
49 | 15 | CCCCCC(O)c1ccc(N2C(=O)CC[C@@H]2CCCc2ccc(C(=O)O)s2)cc1 (single isomer, unassigned) [drawing 151]
50 | 23 | CCCCCC(O)c1ccc(N2C(=O)CC[C@@H]2CCCc2ccc(C(=O)O)s2)cc1 (stereo partly drawn) [drawing 145]
51 | 23 | CCCCCC(O)c1ccc(N2C(=O)CC[C@@H]2CCCc2ccc(C(=O)O)s2)cc1 (stereo partly drawn) [drawing 173]
